Laboratory results taken from patent US20020155192A1, “Yeast transport isoforms” (priority 2000, published 2002).
Read-outs that look alike come from different tables or passages of the source.

Experiments:
Assay type in all cases: biochemical
[1] = biological target: T1, Odc1p (Saccharomyces cerevisiae, UniProt Q03028); experiment: Dependence on internal substrate of [14C]oxoglutarate uptake into proteoliposomes reconstituted with recombinant Odc1p; details: for [14C]oxoglutarate transport: proteoliposomes preloaded with 20 mM internal substrate, 0.6 mM [14C]oxoglutarate, 45 seconds
T1 construct: made in house; host or cells: S. cerevisiae odc1Δodc2Δ (YPH499 background) carrying pYES2-based pODC1; purified from mitochondria on Ni-NTA agarose
T1 sequence (Q03028 1-310): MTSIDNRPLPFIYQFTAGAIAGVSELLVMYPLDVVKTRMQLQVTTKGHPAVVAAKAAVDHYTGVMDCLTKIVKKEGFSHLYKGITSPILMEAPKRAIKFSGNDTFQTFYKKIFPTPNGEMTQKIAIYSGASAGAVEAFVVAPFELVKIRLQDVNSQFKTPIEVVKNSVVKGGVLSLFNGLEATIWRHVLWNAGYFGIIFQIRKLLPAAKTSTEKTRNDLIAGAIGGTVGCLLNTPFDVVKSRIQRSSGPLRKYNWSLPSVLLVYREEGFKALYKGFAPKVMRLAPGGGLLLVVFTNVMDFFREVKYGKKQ
Experimental: (§1) Reconstitution of the ODC proteins into liposomes—Purified ODC proteins were reconstituted by cyclic removal of the detergent with a hydrophobic column (13). The composition of the initial mixture used for reconstitution was: 200 μl of purified isoform (0.3-0.4 μg of protein), 70 μl of 10% Triton X-114, 100 μl of 10% phospholipids in the form of sonicated liposomes, 20 mM oxoglutarate (except where otherwise indicated), 10 mM Pipes (pH 7.0), 0.7 mg of cardiolipin (Sigma) and water to a final volume of 700 μl. These components were mixed thoroughly, and the mixture was recycled 13 times through an Amberlite column (Supelco) (3.0 cm×0.5 cm) preequilibrated with a buffer containing 10 mM Pipes (pH 7.0) and with the substrate at the same concentration as in the starting mixture. All operations were performed at 4° C., except the passages through Amberlite, which were carried out at room temperature.
(§2) External substrate was removed from proteoliposomes on a Sephadex G-75 column preequilibrated with buffer F (50 mM NaCl and 10 mM PIPES, pH 7.0). Transport at 25° C. was started by adding [^14C]oxoglutarate (unless otherwise indicated) to the proteoliposomes, and terminated by addition of 30 mM pyridoxal 5′-phosphate and 10 mM bathophenanthroline (the “inhibitor-stop” method (13)). In controls, inhibitors were added with the labelled substrate. The external radioactivity was removed on Sephadex G-75 and the internal radioactivity was measured. […] The initial rate of transport was calculated in mmol/min per g protein from the time course of isotope equilibration (13). Various other transport activities were also assayed by the inhibitor-stop method. For efflux measurements, the internal substrate pool of the proteoliposomes was made radioactive by carrier-mediated exchange equilibration (13) with 0.1 mM [^14C]oxoglutarate added at high specific radioactivity. After 60 min, the residual external radioactivity was removed by passing the proteoliposomes again through a column of Sephadex G-75. Efflux was started by adding unlabelled external substrate or buffer F alone and terminated by adding the inhibitors indicated above.
(§3) The substrate specificity of purified Odc1p and Odc2p was investigated further by measuring the uptake of [^14C]oxoglutarate into proteoliposomes which had been preloaded with various substrates.
(§4) Proteoliposomes were preloaded internally with various substrates (concentration, 20 mM). Transport was started by adding [^14C]oxoglutarate (final concentration, 0.6 mM) and terminated after 45 seconds.

[2] = biological target: T2, Odc2p (Saccharomyces cerevisiae, UniProt Q99297); experiment: Dependence on internal substrate of [14C]oxoglutarate uptake into proteoliposomes reconstituted with recombinant Odc2p; details: for [14C]oxoglutarate transport: proteoliposomes preloaded with 20 mM internal substrate, 0.6 mM [14C]oxoglutarate, 45 seconds
T2 construct: made in house; host or cells: S. cerevisiae odc1Δodc2Δ (YPH499 background) carrying pYES2-based pODC2; purified from mitochondria on Ni-NTA agarose
T2 sequence (Q99297 1-307): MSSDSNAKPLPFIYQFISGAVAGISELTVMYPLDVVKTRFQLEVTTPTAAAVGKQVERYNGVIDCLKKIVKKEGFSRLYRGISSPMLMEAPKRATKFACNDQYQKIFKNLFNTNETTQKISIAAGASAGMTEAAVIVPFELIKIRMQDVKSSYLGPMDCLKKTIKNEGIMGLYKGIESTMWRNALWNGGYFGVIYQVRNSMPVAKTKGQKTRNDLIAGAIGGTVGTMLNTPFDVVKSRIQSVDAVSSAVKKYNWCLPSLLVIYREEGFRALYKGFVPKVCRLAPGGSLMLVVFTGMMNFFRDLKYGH
Experimental: as §1, §2, §3, §4

[3] = biological target: T1, Odc1p; experiment: Effect of inhibitors and external compounds on the [14C]oxoglutarate/oxoglutarate exchange by proteoliposomes reconstituted with Odc1p; details: for effect of oxomonocarboxylates on the rate of uptake of 0.4 mM oxoglutarate (in words): 8 mM, 20 times greater than the substrate, data not shown
Experimental: FIG. 5. Effect of dicarboxylates and 2-oxodicarboxylates with different carbon chain length on the rate of [^14C]oxoglutarate uptake into proteoliposomes reconstituted with recombinant Odc1p. Proteoliposomes were preloaded with 20 mM oxoglutarate and reconstituted with recombinant Odc1p. Transport was initiated by the addition of 0.4 mM [^14C]oxoglutarate and terminated after 45 seconds. Oxalate, malonate, succinate, glutarate, adipate, pimelate, suberate (▪) and the corresponding 2-oxoacids (●) were added simultaneously with [1^4C]oxoglutarate at 4.0 mM concentration.
as §1, §2
(§5) In addition, the ability of non-radioactive potential substrates to inhibit the oxoglutarate/oxoglutarate exchange was examined.
Proteoliposomes were preloaded internally with 20 mM oxoglutarate and transport was initiated by the addition of 0.4 mM [^14C]oxoglutarate.

[4] = biological target: T2, Odc2p; experiment: Effect of inhibitors and external compounds on the [14C]oxoglutarate/oxoglutarate exchange by proteoliposomes reconstituted with Odc2p; details: for effect of oxomonocarboxylates on the rate of uptake of 0.4 mM oxoglutarate (in words): 8 mM, 20 times greater than the substrate
Experimental: as §1, §2, §5
Proteoliposomes were preloaded internally with 20 mM oxoglutarate and transport was initiated by the addition of 0.4 mM [^14C]oxoglutarate. The incubation time was 45 seconds. Thiol reagents and α-cyanocinnamate were added 2 min before the labelled substrate; the other inhibitors and external substrates were added together with [^14C]oxoglutarate. The final concentration of the inhibitors was 4 mM, except for mercurials (10 μM), carboxyatractyloside (0.1 mM), N-ethylmaleimide and α-cyanocinnamate (2 mM).

[5] = biological target: T1, Odc1p; experiment: Homoexchange of other substrates in proteoliposomes reconstituted with Odc1p; details: internal concentration 10 mM, external concentration 1 mM
Experimental: as §2
(§6) In order to obtain further information about the mechanism of transport catalyzed by Odc1p and Odc2p, the efflux of [^14C]oxoglutarate from pre-labelled active proteoliposomes was investigated as it provides a more convenient assay for unidirectional transport (13).

[6] = biological target: T2, Odc2p; experiment: Homoexchange of other substrates in proteoliposomes reconstituted with Odc2p; details: internal concentration 10 mM, external concentration 1 mM
Experimental: as §2, §6

[7] = Odc1p, proteoliposomes preloaded with various substrates
[8] = Odc2p, proteoliposomes preloaded with various substrates
[9] = Odc1p, added with 0.4 mM [14C]oxoglutarate, 4.0 mM in FIG. 5, partly data not shown

Row | Compound | [14C]oxoglutarate uptake with the internal substrate (in words) [1, 7] | [14C]oxoglutarate uptake with the internal substrate (in words) [2, 8] | [14C]oxoglutarate transport ([1]; Odc1p) | [14C]oxoglutarate transport ([2]; Odc2p) | also measured
1 | CCCC(=O)C(=O)O [2-oxovalerate] | no exchange | no exchange |  |  | effect of oxomonocarboxylates on the rate of uptake of 0.4 mM oxoglutarate (in words) ([3]; Odc1p): did not influence; effect of oxomonocarboxylates on the rate of uptake of 0.4 mM oxoglutarate (in words) ([4]; Odc2p, data not shown): did not influence
2 | NC(CCCCC(=O)O)C(=O)O (stereo not shown) [2-aminopimelate] | no exchange | no exchange |  |  | 
3 | O=S(=O)(O)O [sulfate] |  |  |  |  | [14C]oxoglutarate uptake with the internal substrate (in words) [1]: no exchange; [14C]oxoglutarate uptake with the internal substrate (in words) [2]: no exchange; homoexchange catalyzed by the proteoliposomes (in words) [5]: did not catalyze homoexchanges; homoexchange catalyzed by the proteoliposomes (in words) [6]: did not catalyze homoexchanges
4 | O=C(O)CCCCCCC(=O)O [Suberate] | very low activity | very low activity | 2.8 mmol/min per g protein | 0.4 mmol/min per g protein | effect of non-radioactive potential substrates on the rate of oxoglutarate uptake (in words) [3]: virtually no effect; effect of non-radioactive potential substrates on the rate of oxoglutarate uptake (in words) [4]: virtually no effect
5 | O=C(O)CC(=O)O [Malonate] | very low activity | very low activity | 4.8 mmol/min per g protein | 2.2 mmol/min per g protein | effect of non-radioactive potential substrates on the rate of oxoglutarate uptake (in words) [3, 9]: virtually no effect; effect of non-radioactive potential substrates on the rate of oxoglutarate uptake (in words) ([4]; Odc2p, data not shown): virtually no effect
6 | NC(CCCC(=O)O)C(=O)O (stereo not shown) [2-aminoadipate] | no exchange | no exchange |  |  | 
7 | O=S(O)(O)=S [thiosulfate] |  |  |  |  | [14C]oxoglutarate uptake with the internal substrate (in words) [1]: no exchange; [14C]oxoglutarate uptake with the internal substrate (in words) [2]: no exchange
8 | phosphate | no exchange | no exchange |  |  | homoexchange catalyzed by the proteoliposomes (in words) [5]: did not catalyze homoexchanges; homoexchange catalyzed by the proteoliposomes (in words) [6]: did not catalyze homoexchanges
9 | N[C@@H](CCC(=O)O)C(=O)O [glutamate] | no exchange | no exchange |  |  | homoexchange catalyzed by the proteoliposomes (in words) [5]: did not catalyze homoexchanges; homoexchange catalyzed by the proteoliposomes (in words) [6]: did not catalyze homoexchanges
10 | O=C(O)C[C@@H](O)C(=O)O [D-malate] | taken up efficiently | taken up efficiently | 52.1 mmol/min per g protein | 10.5 mmol/min per g protein | 
11 | CC[C@H](O)C(=O)O [2-hydroxybutyrate] | no exchange | no exchange |  |  | 
12 | NCCC[C@H](N)C(=O)O [ornithine] |  |  |  |  | homoexchange catalyzed by the proteoliposomes (in words) [5]: did not catalyze homoexchanges; homoexchange catalyzed by the proteoliposomes (in words) [6]: did not catalyze homoexchanges
13 | O=C(O)/C=C\C(=O)O [Maleate] | very low activity | very low activity | 7.1 mmol/min per g protein | 2.6 mmol/min per g protein | effect of non-radioactive potential substrates on the rate of oxoglutarate uptake (in words) [3, 9]: no effect; effect of non-radioactive potential substrates on the rate of oxoglutarate uptake (in words) ([4]; Odc2p, data not shown): no effect
14 | O=C(O)CCCCCC(=O)O [Pimelate] | taken up efficiently | taken up efficiently | 48.4 mmol/min per g protein | 10.4 mmol/min per g protein | effect of non-radioactive potential substrates on the rate of oxoglutarate uptake (in words) [3]: significant inhibition; effect of non-radioactive potential substrates on the rate of oxoglutarate uptake (in words) [4]: significant inhibition
15 | Nc1ncnc2c1ncn2[C@@H]1O[C@H](COP(=O)(O)OP(=O)(O)OP(=O)(O)O)[C@@H](O)[C@H]1O [ATP] | no exchange | no exchange |  |  | 
16 | O=C(O)/C=C/C(=O)O [Fumarate] | very low activity | very low activity | 8.9 mmol/min per g protein | 2.4 mmol/min per g protein | effect of non-radioactive potential substrates on the rate of oxoglutarate uptake (in words) [3, 9]: no effect; effect of non-radioactive potential substrates on the rate of oxoglutarate uptake (in words) ([4]; Odc2p, data not shown): no effect
17 | O=C(O)C(=O)O [oxalate] | no exchange | no exchange |  |  | effect of non-radioactive potential substrates on the rate of oxoglutarate uptake (in words) [3, 9]: virtually no effect; effect of non-radioactive potential substrates on the rate of oxoglutarate uptake (in words) ([4]; Odc2p, data not shown): virtually no effect
18 | CCC(=O)C(=O)O [2-oxobutyrate] | no exchange | no exchange |  |  | effect of oxomonocarboxylates on the rate of uptake of 0.4 mM oxoglutarate (in words) ([3]; Odc1p): did not influence; effect of oxomonocarboxylates on the rate of uptake of 0.4 mM oxoglutarate (in words) ([4]; Odc2p, data not shown): did not influence
19 | O=C(O)CCCCC(=O)O [Adipate] | taken up efficiently | taken up efficiently | 65.0 mmol/min per g protein | 16.7 mmol/min per g protein | effect of non-radioactive potential substrates on the rate of oxoglutarate uptake (in words) [3]: significant inhibition; effect of non-radioactive potential substrates on the rate of oxoglutarate uptake (in words) [4]: significant inhibition
